# Results reported in ChEMBL document CHEMBL1201862, “PubChem BioAssay data set” (2004).
#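 Protocol summary: plate cells (96-well), add compound at 5 concentrations, incubate 48 h, interpolate endpoints linearly. Here, GI50 denotes the concentration required for 50% inhibition of growth.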 Activity calls are given as the source filed them. No stated cut-off is given here; in the data, active = GI50 up to about 1.1 µM and inactive = higher.
# Assays:
# Assay in all cases: inhibition of tumour cell growth, NCI panel, 48 h
# UACC-62 = test system: UACC-62
# OVCAR-3 = test system: OVCAR-3
# UO-31 = test system: UO-31
# K562 = test system: K562
# ACHN = test system: ACHN
# SW-620 = test system: SW-620
# RPMI-8226 = test system: RPMI-8226
# NCI-H226 = test system: NCI-H226
# SN12C = test system: SN12C
# HCT-116 = test system: HCT-116
# KM12 = test system: KM12
# TK-10 = test system: TK-10
# OVCAR-5 = test system: OVCAR-5
# HCT-15 = test system: HCT-15
# DU-145 = test system: DU-145
# HOP-92 = test system: HOP-92
# HOP-62 = test system: HOP-62
# LOX IMVI = test system: LOX IMVI
# SR = test system: SR
# SK-MEL-5 = test system: SK-MEL-5
# MDA-MB-435 = test system: MDA-MB-435
# U-251 = test system: U-251
# Malme-3M = test system: Malme-3M
# HL-60 = test system: HL-60
# HT-29 = test system: HT-29
# UACC-257 = test system: UACC-257
# SF-268 = test system: SF-268
# OVCAR-4 = test system: OVCAR-4
# SNB-75 = test system: SNB-75
# OVCAR-8 = test system: OVCAR-8
# SNB-19 = test system: SNB-19
# SF-295 = test system: SF-295
# NCI-H23 = test system: NCI-H23
# CAKI-1 = test system: CAKI-1
# IGROV-1 = test system: IGROV-1
# Hs-578T = test system: Hs-578T
# BT-549 = test system: BT-549
# EKVX = test system: EKVX
# MCF7 = test system: MCF7
# PC-3 = test system: PC-3
# NCI-H522 = test system: NCI-H522
# SK-MEL-2 = test system: SK-MEL-2
# SK-OV-3 = test system: SK-OV-3
# COLO 205 = test system: COLO 205
# T47D = test system: T47D
# SK-MEL-28 = test system: SK-MEL-28
# NCI-H460 = test system: NCI-H460
# M14 = test system: M14
# 786-0 = test system: 786-0
# MDA-N = test system: MDA-N
# A549 = test system: A549
# NCI/ADR-RES = test system: NCI/ADR-RES
# CCRF-CEM = test system: CCRF-CEM
# MOLT-4 = test system: MOLT-4
# RXF 393 = test system: RXF 393
# SF-539 = test system: SF-539
# A498 = test system: A498
# HCC 2998 = test system: HCC 2998
# MDA-MB-231 = test system: MDA-MB-231
smiles,measurement,setting,value
CCOC(=O)CSc1c(C(=O)OCC)c(=O)n(-c2ccccc2)c(=S)n1-c1ccccc1,GI50,UACC-62,36.3 µM (inactive)
same,GI50,OVCAR-3,> 100 µM (inactive)
same,GI50,UO-31,26.9 µM (inactive)
same,GI50,K562,7.53 µM (inactive)
same,GI50,ACHN,36 µM (inactive)
same,GI50,SW-620,9.42 µM (inactive)
same,GI50,RPMI-8226,37.5 µM (inactive)
same,GI50,NCI-H226,36.5 µM (inactive)
same,GI50,SN12C,29.6 µM (inactive)
same,GI50,HCT-116,45.7 µM (inactive)
same,GI50,KM12,59.2 µM (inactive)
same,GI50,TK-10,> 100 µM (inactive)
same,GI50,OVCAR-5,> 100 µM (inactive)
same,GI50,HCT-15,21.5 µM
same,GI50,DU-145,82 µM (inactive)
same,GI50,HOP-92,0.0371 µM (active)
same,GI50,HOP-62,> 100 µM (inactive)
same,GI50,LOX IMVI,15.6 µM (inactive)
same,GI50,SR,13.7 µM (inactive)
same,GI50,SK-MEL-5,23.5 µM (inactive)
same,GI50,MDA-MB-435,41.6 µM (inactive)
same,GI50,U-251,13.3 µM (inactive)
same,GI50,Malme-3M,> 100 µM (inactive)
same,GI50,HL-60,17.1 µM (inactive)
same,GI50,HT-29,54.3 µM (inactive)
same,GI50,UACC-257,29.2 µM (inactive)
same,GI50,SF-268,> 100 µM (inactive)
same,GI50,OVCAR-4,53.5 µM (inactive)
same,GI50,SNB-75,54.6 µM (inactive)
same,GI50,OVCAR-8,41 µM (inactive)
same,GI50,SNB-19,34.7 µM (inactive)
same,GI50,SF-295,36.7 µM (inactive)
same,GI50,NCI-H23,22.7 µM (inactive)
same,GI50,CAKI-1,> 100 µM (inactive)
same,GI50,IGROV-1,20.5 µM (inactive)
same,GI50,Hs-578T,33 µM (inactive)
same,GI50,BT-549,8.49 µM (inactive)
same,GI50,EKVX,62.8 µM (inactive)
same,GI50,MCF7,15.2 µM (inactive)
same,GI50,PC-3,4.61 µM (inactive)
same,GI50,NCI-H522,> 100 µM (inactive)
same,GI50,SK-MEL-2,83 µM (inactive)
same,GI50,SK-OV-3,89.5 µM (inactive)
same,GI50,COLO 205,65.8 µM (inactive)
same,GI50,T47D,> 100 µM (inactive)
same,GI50,SK-MEL-28,> 100 µM (inactive)
same,GI50,NCI-H460,21.6 µM (inactive)
same,GI50,M14,> 100 µM (inactive)
same,GI50,786-0,85.5 µM (inactive)
same,GI50,MDA-N,> 100 µM (inactive)
same,GI50,A549,32.1 µM (inactive)
same,GI50,NCI/ADR-RES,2.99 µM (inactive)
same,GI50,CCRF-CEM,4.92 µM (inactive)
same,GI50,MOLT-4,5.61 µM (inactive)
Cc1cc(-c2nc3ccc(F)cc3s2)ccc1N,GI50,UACC-62,89.1 µM (inactive)
same,GI50,OVCAR-3,> 100 µM (inactive)
same,GI50,UO-31,> 100 µM (inactive)
same,GI50,K562,> 100 µM (inactive)
same,GI50,ACHN,68.2 µM (inactive)
same,GI50,SW-620,> 100 µM (inactive)
same,GI50,RPMI-8226,5.6 µM (inactive)
same,GI50,NCI-H226,59.8 µM (inactive)
same,GI50,SN12C,> 100 µM (inactive)
same,GI50,RXF 393,49.8 µM (inactive)
same,GI50,HCT-116,> 100 µM (inactive)
same,GI50,KM12,> 100 µM (inactive)
same,GI50,TK-10,< 0.01 µM (active)
same,GI50,OVCAR-5,> 100 µM (inactive)
same,GI50,HCT-15,> 100 µM
same,GI50,DU-145,> 100 µM (inactive)
same,GI50,HOP-92,> 100 µM (inactive)
same,GI50,HOP-62,> 100 µM (inactive)
same,GI50,LOX IMVI,> 100 µM (inactive)
same,GI50,SR,> 100 µM (inactive)
same,GI50,SK-MEL-5,41.4 µM (inactive)
same,GI50,MDA-MB-435,> 100 µM (inactive)
same,GI50,U-251,> 100 µM (inactive)
same,GI50,Malme-3M,> 100 µM (inactive)
same,GI50,SF-539,43.5 µM (inactive)
same,GI50,A498,2.55 µM (inactive)
same,GI50,HT-29,> 100 µM (inactive)
same,GI50,UACC-257,> 100 µM (inactive)
same,GI50,SF-268,> 100 µM (inactive)
same,GI50,SNB-75,> 100 µM (inactive)
same,GI50,OVCAR-8,> 100 µM (inactive)
same,GI50,SNB-19,> 100 µM (inactive)
same,GI50,SF-295,> 100 µM (inactive)
same,GI50,NCI-H23,> 100 µM (inactive)
same,GI50,CAKI-1,> 100 µM (inactive)
same,GI50,IGROV-1,1.28 µM (inactive)
same,GI50,Hs-578T,37.2 µM (inactive)
same,GI50,BT-549,> 100 µM (inactive)
same,GI50,EKVX,56.5 µM (inactive)
same,GI50,MCF7,< 0.01 µM (active)
same,GI50,HCC 2998,38.9 µM (inactive)
same,GI50,PC-3,63.5 µM (inactive)
same,GI50,NCI-H522,21.5 µM (inactive)
same,GI50,SK-MEL-2,> 100 µM (inactive)
same,GI50,COLO 205,> 100 µM (inactive)
same,GI50,MDA-MB-231,> 100 µM (inactive)
same,GI50,SK-MEL-28,> 100 µM (inactive)
same,GI50,M14,> 100 µM (inactive)
same,GI50,786-0,> 100 µM (inactive)
same,GI50,MDA-N,> 100 µM (inactive)
same,GI50,A549,42.5 µM (inactive)
same,GI50,NCI/ADR-RES,> 100 µM (inactive)
same,GI50,CCRF-CEM,9.46 µM (inactive)
same,GI50,MOLT-4,> 100 µM (inactive)
